Assays:
Parameters in all cases: species or system SD rat
[1] = tested on: isolated crystalline lenses; assay: Ex vivo study: ex-vivo diabetic cataract models using galactose-containing media (microscopy); conditions: 800 μM PPAR activator added after 3 days in 30 mM galactose M199 medium; observed 3 days after restart of culture (Day 6)
Description: In Example 1, effects of each agent were tested with use of ex-vivo diabetic cataract models using galactose-containing media.
(§1) The crystalline lenses were isolated from the right and left eyeballs of a 6-week-old SD rat (available from Sankyo Labo Service Corporation).
The isolated crystalline lenses were cultured with use of a medium obtained by adding 30 mM of galactose to an M199 medium (available from SIGMA). After that, the crystalline lenses were cultured with use of a medium obtained by adding 30 mM of galactose and 800 μM of a PPAR activator (specifically, bezafibrate or fenofibrate) to an M199 medium.
(§2) Specific points in time at which observation was carried out are as follows. Note that the crystalline lenses were cultured with use of an incubator, the internal temperature of which was maintained at 37° C.
First, 3 days after the start of the culture of the crystalline lenses using the medium obtained by adding 30 mM of galactose to an M199 medium (available from SIGMA), the crystalline lenses were removed from the medium and observed by microscopy under a SZX12 microscope (available from Olympas).
After the microscopy, a PPAR activator was added to the medium, and the culture of the crystalline lenses was restarted. […]

[2] = tested on: isolated crystalline lenses; assay: Quantitative ex vivo study: ex-vivo diabetic cataract models using galactose-containing media, percentage of opacity by image analysis; conditions: for Percentage of opacity of crystalline lens, Day 6: Day 6 = 3 days after restart of culture with 30 mM galactose and PPAR activator; for Percentage of opacity of crystalline lens, Day 3: Day 3 = 3 days in 30 mM galactose medium, before addition of PPAR activator; for effect on the percentage of opacity of the crystalline lens (conclusion from Table 1): ex vivo, low concentration
Description: In Example 2, effects of each agent were tested with use of ex-vivo diabetic cataract models using galactose-containing media, in a similar manner to Example 1.
as §1
The isolated crystalline lenses were cultured with use of a medium obtained by adding 30 mM of galactose to an M199 medium (available from SIGMA). After that, the crystalline lenses were cultured with use of a medium obtained by adding 30 mM of galactose and a PPAR activator to an M199 medium.
as §2
First, 3 days after the start of the culture of the crystalline lenses using the medium obtained by adding 30 mM of galactose to an M199 medium (available from SIGMA), the crystalline lenses were removed from the medium and observed by microscopy under a microscope SZX12 (available from Olympas).
After the microscopy, a PPAR activator was added to the medium, and the culture of the crystalline lenses was restarted. 3 days after the restart of the culture, the crystalline lenses were removed from the medium and observed again by microscopy under the microscope SZX12 (available from Olympas). Note that, for the purpose of clarifying the effects of the PPAR activator, control crystalline lenses were cultured again using a medium having no PPAR activators added thereto.
The images obtained by the microscopy were imported into image processing software (Image J), and the number of pixels was analyzed. In this way, the total area of the crystalline lens and the area of the opaque area were calculated. The percentage of opacity of the crystalline lens was calculated using the following equation.
Percentage of opacity of crystalline lens (%)=100×{(area of opaque area of crystalline lens)/(total area of crystalline lens)}

[3] = tested on: in-vivo diabetic cataract models raised on galactose feed; assay: In vivo study: in-vivo diabetic cataract models raised on galactose feed, instillation to the eye; conditions: for Percentage of opacity of crystalline lens, Left eye: instillation to left eye four times a day for 1 week, feed containing 25% galactose; for effect on the area of the opaque area of the crystalline lens in vivo (conclusion from Table 2): left eye versus DMSO right eye
Description: In Example 3, effects of each agent were tested with use of in-vivo diabetic cataract models raised on galactose feed.
For the purpose of inducing cataract, a 3-week-old SD rat (available from Sankyo Labo Service Corporation) was raised for 1 week on feed containing 25% galactose. Concurrently, during the feeding period, ophthalmic agents were administered by instillation to both eyes of the rat every day (four times a day). The components of the ophthalmic agents were as follows: dimethyl sulfoxide (DMSO; administered as a control) for the right eye; and DMSO containing a PPAR activator for the left eye. On the last day of the feeding period, the crystalline lenses were isolated from the right and left eyes of the rat, and observed by microscopy.
The type of PPAR activator administered to the left eye and its concentration in Example 3 are as follows.
The total area of the crystalline lens, the area of the opaque area of the crystalline lens, and the percentage of opacity of the crystalline lens were calculated in the same manner as described in Example 2.

Compound | Percentage of opacity of crystalline lens, Left eye ([3]; 200 mM in DMSO) | effect on the area of the opaque area of the crystalline lens in vivo (conclusion from Table 2) ([3]; 200 mM in DMSO) | Percentage of opacity of crystalline lens, Day 6 ([2]; 25 μM) | Percentage of opacity of crystalline lens, Day 6 ([2]; 100 μM) | effect on the percentage of opacity of the crystalline lens (conclusion from Table 1) [2] | Percentage of opacity of crystalline lens, Day 3 ([2]; lens later given 25 μM) | Percentage of opacity of crystalline lens, Day 3 ([2]; lens later given 100 μM) | other results
CC(C)(Oc1ccc(CCNC(=O)c2ccc(Cl)cc2)cc1)C(=O)O [Bezafibrate, 2-[4-[2-[(4-chlorobenzoyl)amino]ethyl]phenoxy]-2-methylpropanoic acid] | – | – | – | – | – | – | – | effect on opacity of the cortex of the crystalline lens (microscopy) [1]: have the effect of therapeutic treatment of cataract after its development; Percentage of opacity of crystalline lens, Day 6 ([2]; 200 μM): 28.0%; Percentage of opacity of crystalline lens, Day 3 ([2]; lens later given 200 μM): 27.1%
CC(C)(Oc1ccc(C2CC2(Cl)Cl)cc1)C(=O)O (stereo not drawn) [Ciprofibrate, 2-[4-(2,2-dichlorocyclopropyl)phenoxy]-2-methylpropanoic acid] | 30.2% | have the effect of reducing the area of the opaque area of the crystalline lens in vivo | 15.7% | 2.0% | have the effect of reducing the percentage of opacity of the crystalline lens even when used at low concentration | 17.5% | 16.7% | –
CCOC(=O)C(C)(C)Oc1ccc(Cl)cc1 [Clofibrate, ethyl 2-(4-chlorophenoxy)-2-methylpropanoate] | – | – | 27.3% | 5.7% | – | 9.7% | 7.6% | –
CC(C)(Oc1ccc(Cl)cc1)C(=O)OCCOC(=O)c1cccnc1 [Etofibrate, 2-[2-(4-chlorophenoxy)-2-methylpropanoyl]oxyethyl pyridine-3-carboxylate] | – | – | 25.2% | 3.2% | – | 16.8% | 11.4% | Percentage of opacity of crystalline lens, Left eye ([3]; 140 mM in DMSO): 42.8%
CC(C)OC(=O)C(C)(C)Oc1ccc(C(=O)c2ccc(Cl)cc2)cc1 [Fenofibrate, propan-2-yl 2-[4-(4-chlorobenzoyl)phenoxy]-2-methylpropanoate] | – | – | – | – | – | – | – | effect on opacity of the cortex of the crystalline lens (microscopy) [1]: have the effect of therapeutic treatment of cataract after its development
Cc1ccc(C)c(OCCCC(C)(C)C(=O)O)c1 [Gemfibrozil, 5-(2,5-dimethylphenoxy)-2,2-dimethylpentanoicacid] | 40.4% | have the effect of reducing the area of the opaque area of the crystalline lens in vivo | 8.2% | – | have the effect of reducing the percentage of opacity of the crystalline lens even when used at low concentration | 13.8% | – | Percentage of opacity of crystalline lens, Day 6 ([2]; 0.8 μM): 10.3%; Percentage of opacity of crystalline lens, Day 3 ([2]; lens later given 0.8 μM): 15.4%
CCc1ccc(CCOc2ccc(CC3SC(=O)NC3=O)cc2)nc1 (stereo not drawn) [Pioglitazone, 5-[[4-[2-(5-ethylpyridin-2-yl)ethoxy]phenyl]methyl]-1,3-thiazolidine-2,4-dione] | 44.2% | did not show the effect of reducing the area of the opaque area of the crystalline lens in vivo | – | – | – | – | – | –
CN(CCOc1ccc(CC2SC(=O)NC2=O)cc1)c1ccccn1 (stereo not drawn) [Rosiglitazone, 5-[[4-[2-[methyl(pyridin-2-yl)amino]ethoxy]phenyl]methyl]-1,3-thiazolidine-2,4-dione] | 30.6% | have the effect of reducing the area of the opaque area of the crystalline lens in vivo | – | – | have the effect of reducing the percentage of opacity of the crystalline lens even when used at low concentration | – | – | Percentage of opacity of crystalline lens, Day 6 ([2]; 20 μM): 20.9%; Percentage of opacity of crystalline lens, Day 6 ([2]; 80 μM): 2.2%; Percentage of opacity of crystalline lens, Day 3 ([2]; lens later given 20 μM): 22.8%; Percentage of opacity of crystalline lens, Day 3 ([2]; lens later given 80 μM): 15.6%

— patent US20210059997A1, “PROPHYLACTIC AGENT AND/OR THERAPEUTIC AGENT FOR CATARACT, MEDICINAL COMPOSITION FOR PREVENTING AND/OR TREATING CATARACT, USE OF PPAR ACTIVATOR FOR PRODUCING SAME, AND EYEDROPS” (UNIVERSITY OF FUKUI, priority 2017, published 2021)
